Assay results as given in patent publication US8314150B2, “Kinase protein binding inhibitors” (priority 2008, dated 2012).

How the values were obtained:
[1] = system: Y118-paxillin phosphorylation; test: Western blotting Y118-paxillin, BT474 cells; format: cell-based; conditions: 100 μM, 24 hours
Description: (§1) Cell Viability Assay—The Cells were treated with peptides for 24 hours at different peptide concentrations. The 3-(4,5-dimethylthiazol-2-yl)-5-(3-carboxymethoxyphenyl)-2-(4-sulfophenyl)-2H-tetrazolium compound from Promega Viability kit (Madison, Ill.) was added, and the cells were incubated at 37° C. for 1-2 hours. The optical density on 96-plate was analyzed with a microplate reader at 490 nm to determine cell viability. In addition, cells were stained with trypan blue after 24 hours of treatment with Y15 and the percent of cells that stained positive were determined with a hemacytometer. […] Then 2% SDS was added to the dried plated and OD at 590 nm was measured for detecting cell adhesion. […] Protein concentrations were determined using a Bio-Rad Kit. The boiled samples were loaded on Ready SDS-10% PAGE gels (Bio Rad, Inc) and used for Western blot analysis with the protein-specific antibody. […] Detachment Assay—Cells were plated with and without inhibitors for 24 hours, and detached and attached cells were counted in a hemocytometer. We calculated the percent of detachment by dividing the number of detached cells by the total number of cells. The percent of detached cells was calculated in three independent experiments. […] For each experiment 300 cells per treatment were counted. […]

[2] = system: BT474 breast cancer cells; test: MTT cell viability assay, BT474; format: cell-based; conditions: 24 hours
Description: as §1

Panc-1 cells = test: Apoptosis assay (Hoechst staining), Panc-1; format: cell-based, human
Description: (§2) Cell Viability Assay—The Cells were treated with peptides for 24 hours at different peptide concentrations. The 3-(4,5-dimethylthiazol-2-yl)-5-(3-carboxymethoxyphenyl)-2-(4-sulfophenyl)-2H-tetrazolium compound from Promega Viability kit (Madison, Ill.) was added, and the cells were incubated at 37° C. for 1-2 hours. The optical density on 96-plate was analyzed with a microplate reader at 490 nm to determine cell viability. In addition, cells were stained with trypan blue after 24 hours of treatment with Y15 and the percent of cells that stained positive were determined with a hemacytometer. Cell adhesion assay—The poly-L-Lysine or Collagen (5 μg/ml) coated 96-well plates were blocked with the blocking buffer (medium with 0.5% BSA) for 1 hour at 37 C. The cells were pre-treated with drugs for 3 hours and plated for adhesion at 4×10^5 cells. Cells were incubated at 37 C for 1 hour, fixed in 3.7% formaldehyde, washed in 0.1% BSA in PBS and stained with crystal violet (5 mg/ml in 2% ethanol) for 10 minutes. Then 2% SDS was added to the dried plated and OD at 590 nm was measured for detecting cell adhesion. […] Protein concentrations were determined using a Bio-Rad Kit. The boiled samples were loaded on Ready SDS-10% PAGE gels (Bio Rad, Inc) and used for Western blot analysis with the protein-specific antibody. […] Detachment Assay—Cells were plated with and without inhibitors for 24 hours, and detached and attached cells were counted in a hemocytometer. We calculated the percent of detachment by dividing the number of detached cells by the total number of cells. The percent of detached cells was calculated in three independent experiments. […] The percent of apoptotic cells was calculated as a ratio of apoptotic detached cells divided by the total number of cells in three independent experiments in several fields with the fluorescent microscope. For each experiment 300 cells per treatment were counted. […]

BT474 cells [3] = test: Apoptosis assay (Hoechst staining), BT474; format: cell-based
Description: as §2, with “counted. In vitro Kinase Assay—10 μCi of [γ-^32P]-ATP in a kinase buffer (20 mM HEPES, pH 7.4, 5 mM MgCl2, 5 mM MnCl2, 0.1 mM Na3VO4 with 0.1 μg of purified FAK protein were incubated in a kinase buffer with 10 μCi of [γ-^32P]-ATP. The kinase reaction was performed for 5 minutes at room temperature and stopped by addition of 2× Laemmli buffer. Proteins were separated on a Ready SDS-10% PAGE gel, and the phosphorylated enolase was visualized by autoradiography. KinaseProfiler screening—Kinase specificity screening was performed with KinaseProfiler™ Service (Millipore) available on http://www.millipore.com/drugdiscovery/dd3/KinaseProfiler.” for “counted.”

paxillin phosphorylation = test: Western blotting p-paxillin, Panc-1 cells; format: cell-based, human; conditions: 24 hours
Description: as §1

Panc-1 tumor cells = test: Panc-1 subcutaneous tumor growth in nude mice; format: in vivo; conditions: 30 mg/kg each, daily intraperitoneal
Description: as §1

[4] = system: normal breast epithelial cells (MCF10A); test: Trypan blue staining, normal breast epithelial cells; format: cell-based, human; conditions: doses up to 10 μM
Description: as §1

normal human fibroblasts = test: Detachment and morphology, normal human fibroblasts; format: cell-based; conditions: doses up to 10 μM
Description: as §1

Y397-FAK phosphorylation = test: Y397-FAK levels in BT474 tumors (Western blotting, immunohistochemistry); format: in vivo; conditions: 30 mg/kg, vs untreated mice
Description: as §1

BT474 cells [5] = test: Detachment assay, BT474; format: cell-based; conditions: 24 hours
Description: Cell Viability Assay—The Cells were treated with peptides for 24 hours at different peptide concentrations. The 3-(4,5-dimethylthiazol-2-yl)-5-(3-carboxymethoxyphenyl)-2-(4-sulfophenyl)-2H-tetrazolium compound from Promega Viability kit (Madison, Ill.) was added, and the cells were incubated at 37° C. for 1-2 hours. The optical density on 96-plate was analyzed with a microplate reader at 490 nm to determine cell viability. In addition, cells were stained with trypan blue after 24 hours of treatment with Y15 and the percent of cells that stained positive were determined with a hemacytometer. Cell adhesion assay—The poly-L-Lysine or Collagen (5 μg/ml) coated 96-well plates were blocked with the blocking buffer (medium with 0.5% BSA) for 1 hour at 37 C. The cells were pre-treated with drugs for 3 hours and plated for adhesion at 4×10^5 cells. Cells were incubated at 37 C for 1 hour, fixed in 3.7% formaldehyde, washed in 0.1% BSA in PBS and stained with crystal violet (5 mg/ml in 2% ethanol) for 10 minutes. Then 2% SDS was added to the dried plated and OD at 590 nm was measured for detecting cell adhesion. Western Blotting—Cells or homogenized tumor samples were washed twice with cold 1×PBS and lysed on ice for 30 minutes in a buffer containing: 50 mM Tris-HCl (pH 7.5), 150 mM NaCl, 1% Triton-X, 0.5% NaDOC, 0.1% SDS, 5 mM EDTA, 50 mM NaF, 1 mM NaVO3, 10% glycerol and protease inhibitors: 10 μg/ml leupeptin, 10 μg/ml PMSF and 1 μg/ml aprotinin. The lysates were cleared by centrifugation at 10,000 rpm for 30 minutes at 4° C. Protein concentrations were determined using a Bio-Rad Kit. The boiled samples were loaded on Ready SDS-10% PAGE gels (Bio Rad, Inc) and used for Western blot analysis with the protein-specific antibody. Immunoblots were developed with chemiluminescence Renaissance reagent (NEN Life Science Products, Inc). Immunoprecipitation. Immunoprecipitation was performed according to the standard protocol. In brief, the pre-cleared lysates with equal amount of protein were incubated with 1 μg of primary antibody and 30 μl A/G agarose beads overnight at 4° C. The precipitates were washed with lysis buffer three times and re-suspended in 2× Laemmli buffer. The boiled samples were used for Western blotting, as described above. Detachment Assay—Cells were plated with and without inhibitors for 24 hours, and detached and attached cells were counted in a hemocytometer. We calculated the percent of detachment by dividing the number of detached cells by the total number of cells. The percent of detached cells was calculated in three independent experiments. Apoptosis Assay. […] The percent of apoptotic cells was calculated as a ratio of apoptotic detached cells divided by the total number of cells in three independent experiments in several fields with the fluorescent microscope. For each experiment 300 cells per treatment were counted. In vitro Kinase Assay—10 μCi of [γ-^32P]-ATP in a kinase buffer (20 mM HEPES, pH 7.4, 5 mM MgCl2, 5 mM MnCl2, 0.1 mM Na3VO4 with 0.1 μg of purified FAK protein were incubated in a kinase buffer with 10 μCi of [γ-^32P]-ATP. The kinase reaction was performed for 5 minutes at room temperature and stopped by addition of 2× Laemmli buffer. Proteins were separated on a Ready SDS-10% PAGE gel, and the phosphorylated enolase was visualized by autoradiography. KinaseProfiler screening—Kinase specificity screening was performed with KinaseProfiler™ Service (Millipore) available on http://www.millipore.com/drugdiscovery/dd3/KinaseProfiler. […]

Cl.Cl.Cl.Cl.Nc1cc(N)c(N)cc1N [Y15, 1,2,4,5-benzenetetraamine tetrahydrochloride] was tested, and the “phosphorylation of Y118-paxillin” value [1] was “inhibited”, the “dose at which viability started to decrease” value [2] was 10 µM and the “doses at which viability was significantly blocked” value [2] was 50 to 100 µM. The “apoptotic nuclei (Hoechst)” value (Panc-1 cells; 50 μM) was “no detection of apoptotic nuclei”, the increase in apoptosis (Panc-1 cells; 50-100 μM, not significant) was “less than 10%” and the “apoptotic nuclei (Hoechst)” value (BT474 cells [3]; 200 μM) was “No apoptotic nuclei were detected”. For the same compound, the apoptotic levels (BT474 cells [3]; 50-100 μM) was “less than 6%”, the “phosphorylation of FAK downstream substrate paxillin” value (paxillin phosphorylation) was “blocked” and the tumor growth (Panc-1 tumor cells) was “inhibited tumor growth even better than gemcitabine alone”. For the same compound, the “cell viability (trypan blue)” value [4] was “no decrease in cell viability”, the “morphology and cell detachment” value (normal human fibroblasts) was “did not cause a significant change in morphology or increase in cell detachment” and the “Y397-FAK phosphorylation in tumors” value (Y397-FAK phosphorylation) was “less Y397-FAK phosphorylation”. For the same compound, the “total FAK levels in tumors” value (Y397-FAK phosphorylation) was “the same”, the detachment (BT474 cells [5]; 10 μM) was 8% and the detachment (BT474 cells [5]; 50 μM) was 38%. The detachment (BT474 cells [5]; 100 μM) was 58%.
